Laboratory results taken from ChEMBL document CHEMBL1255239, “Increases in SLT2 expression and chitin content are associated with incomplete killing of Candida glabrata by caspofungin” (2008).
The source made the active and inactive calls. No cut-off for these calls is given here.

How the values were obtained:
Nakaseomyces glabratus [1] = assay: Antifungal activity against Candida glabrata 200989 at 0.125 to 16 ug/ml by time-kill analysis; type: functional, organism-based
Nakaseomyces glabratus [2] = assay: Antifungal activity against slt2 deficient Candida glabrata 200989 assessed as log reduction in bacterial count at 1 ug/ml by time-kill analysis; type: functional
Nakaseomyces glabratus [3] = assay: Antifungal activity against Candida glabrata 200989 at 0 to 32 ug/ml by XTT […] assay; type: functional, organism-based
Nakaseomyces glabratus [4] = assay: Antifungal activity against slt2 deficient Candida glabrata 200989 assessed as log reduction in bacterial count at 0.125 ug/ml by time-kill analysis; type: functional
Nakaseomyces glabratus [5] = assay: Increase in CHS3 gene expression in Candida glabrata 200989 at 0.125 to 16 ug/ml after 180 mins by RT-PCR analysis relative to control; type: functional
Nakaseomyces glabratus [6] = assay: Increase in chitin content in Candida glabrata 200989 at 0.125 to 16 ug/ml after 12 hrs relative to control; type: functional
Nakaseomyces glabratus [7] = assay: Increase in CHS3 gene expression in slt2 deficient Candida glabrata 200989 at 0.125 to 16 ug/ml after 180 mins by RT-PCR analysis; type: functional, organism-based
Nakaseomyces glabratus [8] = assay: Increase in chitin content in slt2 deficient Candida glabrata 200989 at 0.125 to 16 ug/ml after 12 hrs; type: functional, organism-based
Nakaseomyces glabratus [9] = assay: Increase in slt2 gene expression in Candida glabrata 200989 at 0.125 to 16 ug/ml after 12 hrs by RT-PCR analysis; type: functional, organism-based
Nakaseomyces glabratus [10] = assay: Increase in slt2 gene expression in Candida glabrata 200989 at 0.125 to 16 ug/ml after 10 mins by RT-PCR analysis relative to control; type: functional
Nakaseomyces glabratus [11] = assay: Antifungal activity against Candida glabrata 200989 assessed as log reduction in bacterial count at 0.125 to 16 ug/ml by time-kill analysis; type: functional
Nakaseomyces glabratus [12] = assay: Increase in slt2 gene expression in Candida glabrata 200989 at 0.125 to 16 ug/ml after 180 mins by RT-PCR analysis relative to control; type: functional
Nakaseomyces glabratus [13] = assay: Antifungal activity against slt2 deficient Candida glabrata 200989 assessed as log reduction in bacterial count at 16 ug/ml by time-kill analysis; type: functional

CC[C@H](C)C[C@H](C)CCCCCCCCC(=O)N[C@H]1C[C@@H](O)[C@@H](NCCN)NC(=O)[C@@H]2[C@@H](O)CCN2C(=O)[C@H]([C@H](O)CCN)NC(=O)[C@H]([C@H](O)[C@@H](O)c2ccc(O)cc2)NC(=O)[C@@H]2C[C@@H](O)CN2C(=O)[C@H]([C@@H](C)O)NC1=O [CASPOFUNGIN]
Activity (Nakaseomyces glabratus [1]): inactive
log10cfu (Nakaseomyces glabratus [2]): 4.2 /ml
Activity (Nakaseomyces glabratus [3]): inactive
log10cfu (Nakaseomyces glabratus [4]): 2.6 /ml
fold change (FC) (Nakaseomyces glabratus [5]): >2
fold change (FC) (Nakaseomyces glabratus [6]): >3.5
Activity (Nakaseomyces glabratus [7]): inactive
Activity (Nakaseomyces glabratus [8]): inactive
Activity (Nakaseomyces glabratus [9]): inactive
fold change (FC) (Nakaseomyces glabratus [10]): >2
log10cfu (Nakaseomyces glabratus [11]): 1.6 /ml
fold change (FC) (Nakaseomyces glabratus [12]): >=3.8
log10cfu (Nakaseomyces glabratus [13]): 4.2 /ml
